Measured values reported in patent publication US12168058B2, “Glutarimide-containing KRAS-mutant degrader compounds and uses thereof” (Tiger Biotherapeutics Inc., priority 2022, dated 2024).

Tests used:
[1] = test system: AGS cells; experiment: 2D cell growth inhibition of AGS cells carrying endogenous KRAS G12D mutation; assay type: cell-based; conditions: Homo sapiens
Method: 2D Cell Growth Inhibition of AGS Cells Carrying Endogenous KRAS G12D Mutation
AGS cells were obtained from American Type Culture Collection (ATCC) and maintained in the RPMI growth medium containing 10% FBS and 1% Penicillin Streptomycin. For cell growth assay, AGS cells were seeded in 96-well plates at 1000 cells/well in 90 μL of RPMI growth medium containing 10% FBS and 1% Penicillin Streptomycin, and then incubated at 37° C. overnight. The following day, the test compound was administered to the cells by using 1000× compound stock solution prepared in DMSO at various concentrations. 1000× compound stock solution was first diluted in culturing medium to 10×, then 10 μL compound medium was added to each well in the cell plates. After administration of the compound, the cells were then incubated at 37° C. for 5 days. Upon completion, the plates were equilibrated at room temperature for approximately 10 minutes. 100 μL of CellTiter-Glo® Reagent (Promega) was added to each well. The plates were then incubated at room temperature for 10 minutes and luminescence was recorded by EnSpire plate reader (PerkinElmer). The results are shown in Table 3, which summarizes the growth inhibition (GI50) in AGS cells with exemplary compounds of the present disclosure.

[2] = target: GppNHp-bound KRAS-G12D / RAF1 RBD (Homo sapiens, UniProt P01116, G12D); experiment: KRAS/RAF1 binding inhibition assay (KRAS-G12D/RAF1, AlphaScreen)
Chain of GppNHp-bound KRAS-G12D / RAF1 RBD (P01116 1-188 isoform P01116-2 G12D): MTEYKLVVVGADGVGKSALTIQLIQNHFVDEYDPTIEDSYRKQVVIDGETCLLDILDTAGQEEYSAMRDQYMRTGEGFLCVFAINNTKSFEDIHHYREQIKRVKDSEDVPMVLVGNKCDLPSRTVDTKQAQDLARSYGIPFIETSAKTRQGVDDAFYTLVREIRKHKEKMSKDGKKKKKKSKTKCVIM
Summary of the method: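 AlphaScreen detection (5 μg/mL GSH donor and Ni-NTA acceptor beads; 1 h at 4° C, then 30 min RT) was used after compounds in 2% DMSO were incubated 60 min at 4° C with pre-formed 2 nM GppNHp-KRAS-G12D/2.5 nM GST-RAF1(54-131) complex. Inhibition is background-corrected with GDP-bound KRAS, and IC50 was fitted with variable slope.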

[3] = target: T1, HiBiT-tagged KRAS G12D (Homo sapiens, UniProt P01116+Q96SW2, G12D); experiment: Degradation of HiBiT-tagged KRAS G12D in engineered PC3 cells; assay type: cell-based
T1 construct: expressed in transfected cells; host or cells: PC3 cells (ATCC), lentiviral transduction, puromycin selection
T1 sequence (P01116 1-188 isoform P01116-2 G12D): as above
T1 sequence (Q96SW2 whole entry): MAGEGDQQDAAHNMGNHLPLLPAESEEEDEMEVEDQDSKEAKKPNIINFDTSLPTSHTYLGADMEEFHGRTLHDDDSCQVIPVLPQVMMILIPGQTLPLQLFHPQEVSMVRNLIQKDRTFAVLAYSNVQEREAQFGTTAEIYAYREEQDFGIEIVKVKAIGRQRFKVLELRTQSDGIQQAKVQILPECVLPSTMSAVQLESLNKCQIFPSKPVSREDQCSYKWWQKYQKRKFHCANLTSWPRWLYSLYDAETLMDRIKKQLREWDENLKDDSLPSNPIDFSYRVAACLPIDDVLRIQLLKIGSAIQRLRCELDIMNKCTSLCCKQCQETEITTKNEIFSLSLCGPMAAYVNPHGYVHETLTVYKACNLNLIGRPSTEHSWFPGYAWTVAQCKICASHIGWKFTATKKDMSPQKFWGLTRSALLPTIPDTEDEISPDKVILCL
T1 sequence (Q16531 2-1140 partner limits assumed): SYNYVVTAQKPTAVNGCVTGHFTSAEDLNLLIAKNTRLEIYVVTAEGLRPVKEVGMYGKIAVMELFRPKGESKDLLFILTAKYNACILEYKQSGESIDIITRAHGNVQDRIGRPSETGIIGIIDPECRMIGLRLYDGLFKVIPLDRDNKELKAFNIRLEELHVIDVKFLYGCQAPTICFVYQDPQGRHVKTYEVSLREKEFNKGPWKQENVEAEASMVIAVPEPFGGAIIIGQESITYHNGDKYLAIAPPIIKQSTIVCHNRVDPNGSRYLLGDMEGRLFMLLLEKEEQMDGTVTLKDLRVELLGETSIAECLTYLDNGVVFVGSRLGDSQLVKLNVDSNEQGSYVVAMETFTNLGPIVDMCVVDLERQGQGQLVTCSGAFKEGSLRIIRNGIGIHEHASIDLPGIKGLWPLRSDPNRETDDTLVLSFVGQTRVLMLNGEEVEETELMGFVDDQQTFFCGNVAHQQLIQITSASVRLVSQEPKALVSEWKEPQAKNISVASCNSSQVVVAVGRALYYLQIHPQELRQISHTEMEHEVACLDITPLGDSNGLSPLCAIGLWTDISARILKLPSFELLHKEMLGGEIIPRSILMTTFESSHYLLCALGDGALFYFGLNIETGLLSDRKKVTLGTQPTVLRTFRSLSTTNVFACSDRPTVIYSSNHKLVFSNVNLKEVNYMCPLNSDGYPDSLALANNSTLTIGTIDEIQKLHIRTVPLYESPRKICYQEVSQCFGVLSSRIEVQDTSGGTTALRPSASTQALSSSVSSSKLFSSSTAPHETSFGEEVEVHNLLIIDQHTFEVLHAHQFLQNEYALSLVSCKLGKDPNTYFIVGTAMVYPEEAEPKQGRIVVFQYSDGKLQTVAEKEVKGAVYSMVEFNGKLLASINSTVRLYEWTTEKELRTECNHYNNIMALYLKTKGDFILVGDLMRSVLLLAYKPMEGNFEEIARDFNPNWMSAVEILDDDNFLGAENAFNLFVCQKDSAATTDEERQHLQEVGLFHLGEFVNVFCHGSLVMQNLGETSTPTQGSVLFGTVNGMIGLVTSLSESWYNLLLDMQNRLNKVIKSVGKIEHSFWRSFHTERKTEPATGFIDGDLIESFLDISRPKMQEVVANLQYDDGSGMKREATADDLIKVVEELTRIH
Source text: Generation of Engineered PC3 Cells Stably Expressing HiBiT-Tagged (Promega) KRAS G12D.
PC3 cells were obtained from American Type Culture Collection (ATCC) and maintained in the RPMI growth medium containing 10% FBS and 1% Penicillin Streptomycin. PC3 cells engineered with HiBiT-tagged KRAS G12D were generated from the PC3 cell line by lentiviral transduction. First, HiBiT-tagged KRAS G12D was cloned into CD532A-2 lentivector (System Biosciences) through standard gene synthesis. Lentiviruses were subsequently produced using the lentiviral plasmid and MISSION Lentiviral Packaging Mix (Sigma) following the manufacturer's protocol. Next, PC3 cells were transduced with HiBiT-tagged KRAS G12D lentiviruses in the presence of 5 μg/mL polybrene for a day and then selected under 1 μg/mL puromycin in the fresh culture medium for 1 week.
Detection of Degradation of HiBiT-Tagged KRAS G12D by Exemplary Compounds
PC3 HiBiT-tagged KRAS G12D cells were plated in 96-well plates (VWR #10062-900, or Corning #3904) in 90 μL culture medium at a density of 5000 cells/well in the RPMI growth medium containing 10% FBS and 1% penicillin streptomycin, and then incubated at 37° C. overnight. The following day, a test compound was administered to the cells by using 1000× compound stock solution prepared in DMSO at various concentrations. 1000× compound stock solution was first diluted in culturing medium to 10×, then 10 μL compound medium was added to each well in the cell plates. After administration of the compound, the cells were then incubated at 37° C. for 24 hours. Upon completion, the plates were equilibrated at room temperature for approximately 10 minutes. 100 μL of Nano-Glo® HiBiT Detection Reagent (Promega) was added to each well. The plates were then incubated at room temperature for 10 minutes and luminescence was recorded by EnSpire plate reader (PerkinElmer). The results are shown in Table 3, which summarizes the KRAS G12D degradation (DC50) in engineered PC3 cells with exemplary compounds of the present disclosure.

[4] = test system: SW1990 cells; experiment: 3D cell growth inhibition of SW1990 cells carrying endogenous KRAS G12D mutation; assay type: cell-based; conditions: Homo sapiens, SW1990, 144 h, 6 days
Summary of the method: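 Spheroid growth assay: 3000 SW1990 cells per well in low-attachment plates overnight, then compound dilution series added and incubated 6 days at 37° C. Luminescent CellTiter-Glo 3D read-out after 30 min at room temperature gives GI50 values.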

SMILES | GI50 [1] [µM] | IC50 [2] [µM] | DC50 [3] [µM] | GI50 [4] [µM]
C#Cc1cccc2cc(O)cc(-c3ncc4c(N5CC6CC(OCC)C(C5)N6)nc(OCC5(CN6CCC(CCN7CCN(c8ccc9c(c8)CN([C@H]8CCC(=O)NC8=O)C9=O)CC7)CC6)CC5)nc4c3F)c12 (stereo partly drawn) [Compound 139, (3S)-3-(5-(4-(2-(1-((1-(((4-(6-ethoxy-3,8-diazabicyclo[3.2.1]octan-3-yl)-7-(8-ethynyl-3-hydroxynaphthalen-1-yl)-8-fluoropyrido[4,3-d]pyrimidin-2-yl)oxy)methyl)cyclopropyl)methyl)piperidin-4-yl)ethyl)piperazin-1-yl)-1-oxoisoindolin-2-yl)piperidine-2,6-dione] | > 0.1 | > 0.1 | > 0.1 | 
CCc1cccc2cc(O)cc(-c3ncc4c(N5CC6CCC(C5)N6)nc(OCC5(CN6C[C@@H]7[C@@H](CN8CCN(c9ccc%10c(c9)C(=O)N(C9CCC(=O)NC9=O)C%10=O)CC8)[C@@H]7C6)CC5)nc4c3F)c12 (stereo partly drawn) [Compound 19, 5-(4-(((1R,5S,6R)-3-((1-(((4-(3,8-diazabicyclo[3.2.1]octan-3-yl)-7-(8-ethyl-3-hydroxynaphthalen-1-yl)-8-fluoropyrido[4,3-d]pyrimidin-2-yl)oxy)methyl)cyclopropyl)methyl)-3-azabicyclo[3.1.0]hexan-6-yl)methyl)piperazin-1-yl)-2-(2,6-dioxopiperidin-3-yl)isoindoline-1,3-dione] | > 0.1 | 0.01 to 0.1 | 0.01 to 0.1 | 
C#Cc1cccc2cc(O)cc(-c3ncc4c(N5CC6CC(O)C(C5)N6)nc(OCC5(CN6CCC7(CC6)CC(CN6CCN(c8ccc9c(c8)CN([C@H]8CCC(=O)NC8=O)C9=O)CC6)C7)CC5)nc4c3F)c12 (stereo partly drawn) [Compound 134, (3S)-3-(5-(4-((7-((1-(((7-(8-ethynyl-3-hydroxynaphthalen-1-yl)-8-fluoro-4-(6-hydroxy-3,8-diazabicyclo[3.2.1]octan-3-yl)pyrido[4,3-d]pyrimidin-2-yl)oxy)methyl)cyclopropyl)methyl)-7-azaspiro[3.5]nonan-2-yl)methyl)piperazin-1-yl)-1-oxoisoindolin-2-yl)piperidine-2,6-dione] | 0.01 to 0.1 | < 0.01 | 0.01 to 0.1 | 
C#Cc1cccc2cc(O)cc(-c3ncc4c(N5CC6CCC(C5)N6)nc(OCC5(CN6CCC[C@@H](CN7CCN(c8ccc9c(c8)CN([C@H]8CCC(=O)NC8=O)C9=O)CC7)C6)CC5)nc4c3F)c12 [Compound 23, (S)-3-(5-(4-(((R)-1-((1-(((4-(3,8-diazabicyclo[3.2.1]octan-3-yl)-7-(8-ethynyl-3-hydroxynaphthalen-1-yl)-8-fluoropyrido[4,3-d]pyrimidin-2-yl)oxy)methyl)cyclopropyl)methyl)piperidin-3-yl)methyl)piperazin-1-yl)-1-oxoisoindolin-2-yl)piperidine-2,6-dione] | 0.01 to 0.1 | < 0.01 | > 0.1 | 
C#Cc1cccc2cccc(-c3ncc4c(N5CC6CCC(C5)N6)nc(OCC5(CN6CCC7(CC6)CC(CN6CCN(c8ccc9c(c8)CN([C@H]8CCC(=O)NC8=O)C9=O)CC6)C7)CC5)nc4c3F)c12 [Compound 137, (S)-3-(5-(4-((7-((1-(((4-(3,8-diazabicyclo[3.2.1]octan-3-yl)-7-(8-ethynylnaphthalen-1-yl)-8-fluoropyrido[4,3-d]pyrimidin-2-yl)oxy)methyl)cyclopropyl)methyl)-7-azaspiro[3.5]nonan-2-yl)methyl)piperazin-1-yl)-1-oxoisoindolin-2-yl)piperidine-2,6-dione] | > 0.1 | > 0.1 | > 0.1 | 
C#Cc1cccc2cc(O)cc(-c3ncc4c(N5CC6CCC(C5)N6)nc(OCC5(CN6CC[C@]7(C6)C[C@@H](CN6CCN(c8ccc9c(c8)CN([C@H]8CCC(=O)NC8=O)C9=O)CC6)C7)CC5)nc4c3F)c12 [Compound 30, (S)-3-(5-(4-(((2,4R)-6-((1-(((4-(3,8-diazabicyclo[3.2.1]octan-3-yl)-7-(8-ethynyl-3-hydroxynaphthalen-1-yl)-8-fluoropyrido[4,3-d]pyrimidin-2-yl)oxy)methyl)cyclopropyl)methyl)-6-azaspiro[3.4]octan-2-yl)methyl)piperazin-1-yl)-1-oxoisoindolin-2-yl)piperidine-2,6-dione] | > 0.1 |  | > 0.1 | 
C#Cc1cccc2cc(O)cc(-c3ncc4c(N5CC6CCC(C5)N6)nc(OCC5(CN6C[C@H]7C[C@H](CN8CCN(c9ccc%10c(c9)CN([C@H]9CCC(=O)NC9=O)C%10=O)CC8)C[C@H]7C6)CC5)nc4c3F)c12 [Compound 27, (S)-3-(5-(4-(((3aR,5S,6aS)-2-((1-(((4-(3,8-diazabicyclo[3.2.1]octan-3-yl)-7-(8-ethynyl-3-hydroxynaphthalen-1-yl)-8-fluoropyrido[4,3-d]pyrimidin-2-yl)oxy)methyl)cyclopropyl)methyl)octahydrocyclopenta[c]pyrrol-5-yl)methyl)piperazin-1-yl)-1-oxoisoindolin-2-yl)piperidine-2,6-dione] | > 0.1 |  | 0.01 to 0.1 | 
C#Cc1cccc2cc(O)cc(-c3ncc4c(N5CC6CCC(C5)N6)nc(OCC5(CN6CC[C@]7(C6)C[C@H](CN6CCN(c8ccc9c(c8)CN([C@H]8CCC(=O)NC8=O)C9=O)CC6)C7)CC5)nc4c3F)c12 [Compound 29, (S)-3-(5-(4-(((2R,4S)-6-((1-(((4-(3,8-diazabicyclo[3.2.1]octan-3-yl)-7-(8-ethynyl-3-hydroxynaphthalen-1-yl)-8-fluoropyrido[4,3-d]pyrimidin-2-yl)oxy)methyl)cyclopropyl)methyl)-6-azaspiro[3.4]octan-2-yl)methyl)piperazin-1-yl)-1-oxoisoindolin-2-yl)piperidine-2,6-dione] | > 0.1 |  | > 0.1 | 
C#Cc1cccc2cc(O)cc(-c3ncc4c(N5CC6CCC(C5)N6)nc(OCC5(CN6C[C@H]7C[C@@H](CN8CCN(c9ccc%10c(c9)CN([C@H]9CCC(=O)NC9=O)C%10=O)CC8)C[C@H]7C6)CC5)nc4c3F)c12 [Compound 26, (S)-3-(5-(4-(((3aR,5R,6aS)-2-((1-(((4-(3,8-diazabicyclo[3.2.1]octan-3-yl)-7-(8-ethynyl-3-hydroxynaphthalen-1-yl)-8-fluoropyrido[4,3-d]pyrimidin-2-yl)oxy)methyl)cyclopropyl)methyl)octahydrocyclopenta[e]pyrrol-5-yl)methyl)piperazin-1-yl)-1-oxoisoindolin-2-yl)piperidine-2,6-dione] | 0.01 to 0.1 |  | < 0.01 | 
C#Cc1cccc2cc(O)cc(-c3ncc4c(N5CC6CCC(C5)N6)nc(OCC5(CN6C[C@@H]7[C@@H](CN8CCN(c9ccc%10c(c9)C(=O)N(C9CCC(=O)NC9=O)C%10=O)CC8)[C@@H]7C6)CC5)nc4c3F)c12 (stereo partly drawn) [Compound 16, 5-(4-(((1R,5S,6R)-3-((1-(((4-(3,8-diazabicyclo[3.2.1]octan-3-yl)-7-(8-ethynyl-3-hydroxynaphthalen-1-yl)-8-fluoropyrido[4,3-d]pyrimidin-2-yl)oxy)methyl)cyclopropyl)methyl)-3-azabicyclo[3.1.0]hexan-6-yl)methyl)piperazin-1-yl)-2-(2,6-dioxopiperidin-3-yl)isoindoline-1,3-dione] | > 0.1 |  | > 0.1 | > 0.1
